In US6911470B1, “Polyoxometalate compounds as antiviral agents” (priority 1988, dated 2005):
Values joined by “and” are separate entries in the source; they are usually repeats but may differ in a detail not shown here. Equal entries are not always repeated. Where two headings read alike, the source gives them in different places.

Legend:
Vero cells = test: Cytotoxicity assay in Vero cells; type: cell-based; conditions: for IC50: Table 2, >100 μM = Nontoxic, read-out: IC50 Toxicity Vero Cells; for Toxicity Vero Cells, percent at given concentration: 100 μM
Text: Cell culture assays for heroes simplex viruses. Mycoplasma-free Vero cells, obtained from Flow Laboratory (McLean, Va.), were used for the plaque assays. The methodologies for the plaque reduction and cytotoxicity assays have been previously described (Schinazi et al, Antimicrob. Agents Chemother. 22, 499-507, 1982).

HSV-2 = test: Plaque reduction assay for herpes simplex viruses in Vero cells; type: cell-based, herpes simplex virus type 2; conditions: Table 2, read-out: EC-50 HSV-2
Description: Cell culture assays for heroes simplex viruses. Mycoplasma-free Vero cells, obtained from Flow Laboratory (McLean, Va.), were used for the plaque assays. The methodologies for the plaque reduction and cytotoxicity assays have been previously described (Schinazi et al, Antimicrob. Agents Chemother. 22, 499-507, 1982). Median-effect method. Dose-effect relationships were analyzed by the median-effect equation (Chou et al, Adv. Enz. Regul. 22, 27-55, 1984). The slope (m) and median effective and inhibitory concentration (EC50 and IC50) values were obtained by using a computer program developed by Chou and Chou (Chou et al, Elsevier-Biosoft, Elsevier Science Publishers, Cambridge, U.K., 1985).

HIV-1 (strain LAV-1) = test: microbe, parasite or virus in culture; type: cell-based
Description: Cells. Human peripheral blood mononuclear cells (PBMC) from healthy HIV-1 seronegative and hepatitis B virus seronegative donors were isolated by Ficoll-Hypaque discontinuous gradient centrifugation at 1,000×g for 30 minutes, washed twice in phosphate-buffered saline (pH 7.2; PBS), and pelleted at 300×g for 10 minutes. Before infection, the cells were stimulated by phytohemagglutinin (PHA) at a concentration of 6 μg/ml for three days in RPMI 1640 medium supplemented with 15% heat-inactivated fetal calf serum, 1.5 mM L-glutamine, penicillin (100 U/ml), streptomycin (100 μg/ml), and 4mM sodium bicarbonate buffer.
Viruses. HIV-1 (strain LAV-1) was obtained from Dr. P. Feorino (Centers for Disease Control, Atlanta, Ga.). The virus was propagated in human PBMC using RPMI 1640 medium, as described previously (McDougal et al, J. Immun. Meth. 76, 171-183, 1985) without PHA and supplemented with 7% v/v interleukin-2 (Advanced Biotechnologies, Silver Spring, Md.), 7 μg/ml DEAE-dextran (Pharmacia, Uppsala, Sweden), and 370 U/ml anti-human leucocyte (alpha) interferon (ICN, Lisle, Ill.). Virus obtained from cell-free culture supernatant was titrated and stored in aliquots at −80° C. until use.
Inhibition of virus replication in human PBMC. Uninfected PHA-stimulated human PBMC were uniformly distributed among 25 cm^2 flasks to give a 5 ml suspension containing about 2×10^6 cells/ml. Suitable dilutions of virus were added to infect the cultures. The mean reverse transcriptase (RT) activity of the inocula was 50,000 decompositions per min/ml corresponding to about 100 TCID50, as determined by Groopman et al. (Groopman et al, AIDS Res. Human Retro. 3, 71-85, 1987. The drugs at twice their final concentrations in 5 ml of RPMI 1640 medium, supplemented as described above, were added to the cultures. Uninfected and untreated PBMC at equivalent cell densities were grown in parallel as controls. The cultures were maintained in a humidified 5% CO2-95% air incubator at 37° C. for six days after infection, at which point all cultures were sampled for supernatant reverse transcriptase (RT) activity.
RT activity assay. Six ml supernatant from each culture was clarified from cells at 300×g for 10 minutes. Virus particles were pelleted from 5 ml samples at 40,000 rpm for 30 minutes using a Beckman 70.1 Ti rotor and suspended in 200 μl of virus disrupting buffer (50 mM Tris-Cl, pH 7.8, 800 mM NaCl, 20% glycerol, 0.5 mM phenylmethyl sulfonyl fluoride, and 0.5% Triton X-100).
The RT assay was performed in 96-well microtiter plates, as described by Spira et al. (Spira et al, J. Clin. Microbiol. 22, 97-99, 1987). The reaction mixture, which contained 50 mM Tris-Cl pH 7.8, 9 mM MgCl2, 5 mM dithiothreitol (DTT), 4.7 μg/ml (rA)n. (dT)12-18, 140 μM dATP, and 0.22 μM [^3H]TTP, specific activity 78.0 Ci/mmol, equivalent to 17,300 cpm/pmol; NEN Research Products, Boston, Mass., was added to each well. The sample (20 μl) was added to the reaction mixture which was then incubated at 37° C. for 2 hours. The reaction was terminated by the addition of 100 μl 10% trichloroacetic acid (TCA) containing 0.45 mM sodium pyrophosphate. The acid-insoluble nucleic acids which precipitated were collected on glass filters using a Skatron semi-automatic harvester. The filters were washed with 5% TCA and 70% ethanol, dried, and placed in scintillation vials. Four ml of scintillation fluid (Econofluor, NEN Research Products, Boston, Mass.) were added and the amount of radioactivity in each sample was determined using a Packard Tri-Carb liquid scintillation analyzer (model 2,000CA). The results were expressed in dpm/ml of original clarified supernatant.
Median-effect method. Dose-effect relationships were analyzed by the median-effect equation (Chou et al, Adv. Enz. Regul. 22, 27-55, 1984).

human PBM cells = test: Cytotoxicity assay on uninfected PHA stimulated human PBMC (trypan blue); type: cell-based
Outline: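 Uninfected PHA-stimulated human PBMC at 2×10^5 cells/ml were cultured with or without drug for 6 days. Viability was counted by trypan blue exclusion on a hemacytometer. IC50 was derived by the median-effect method.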

[1] = Table 2, several values per cell, some in brackets, read-out: EC-50 HIV-1 (LAV-1)
[2] = Table 2, >100 μM = Nontoxic, read-out: IC50 Toxicity PBM Cells
[3] = Table 1, read-out: EC50 Anti-HIV-1 Activity in Human PBM Cells
[4] = Table 1, read-out: IC50 Toxicity in Human PBM Cells

Molecule	IC50 (Vero cells)	EC50 (HSV-2)	EC50 (HIV-1 (strain LAV-1); [1])	EC50 (HIV-1 (strain LAV-1); [3])	IC50 (human PBM cells; [4])	further results
Cc1cn([C@H]2C[C@H](N=[N+]=[N-])[C@@H](CO)O2)c(=O)[nH]c1=O [Formula 22, 3′-azido-3′-deoxythymidine, reference compound]	–	–	–	–	–	IC50 (Vero cells; Chlorocebus sabaeus, Vero): 29 µM; EC50 (HSV-2; Human alphaherpesvirus 2, Vero): > 100 µM; EC50 (HIV-1 (strain LAV-1); Human immunodeficiency virus 1, PBMC, Table 1, read-out: EC50 Anti-HIV-1 Activity in Human PBM Cells): 0.004 µM; EC50 (HIV-1 (strain LAV-1); Human immunodeficiency virus 1, PBMC, Table 2, several values per cell, some in brackets, read-out: EC-50 HIV-1 (LAV-1)): 0.00308 µM; IC50 (human PBM cells; Homo sapiens, PBMC, Table 1, read-out: IC50 Toxicity in Human PBM Cells): > 100 µM; IC50 (human PBM cells; Homo sapiens, PBMC, Table 2, >100 μM = Nontoxic, read-out: IC50 Toxicity PBM Cells): > 100 µM
(ArgH^+)m(H^+)4-mST, where m=1-4 [(ARGH^+)nH^+(4−n)ST]	> 100 µM	< 1 µM	1.03 µM and 0.77 µM	–	–	IC50 (human PBM cells; [2]): > 100 µM
(Me4N)4W10O32 [Formula 19]	> 100 µM	8.78 µM	3.05 µM and 3.3 µM	3.1 µM	> 100 µM	–
(NH4)4W10O32 [Formula 18]	> 100 µM	9.7 µM	–	1.8 µM	115 µM	IC50 (human PBM cells; [2]): > 100 µM
(NH4)6P2W18O62 [Formula 14]	–	0.24 µM	0.91 µM	0.91 µM	1.8 µM	Toxicity Vero Cells, percent at given concentration (Vero cells): 83%,; Toxicity PBM Cells, percent at given concentration (human PBM cells; 100 μM): 76%,
H3PW12O40 [Formula 2]	10 µM	18.7 µM	14 µM	14 µM	> 100 µM	–
H4SiW12O40 [Formula 3]	80 µM	1.5 µM	–	0.12 µM	> 200 µM	EC50 (HIV-1 (strain LAV-1); Table 2, several values per cell, some in brackets, listed as α and β H4ST, read-out: EC-50 HIV-1 (LAV-1)): 0.12 µM and 0.21 µM; therapeutic index in human PBM cells (HIV-1 (strain LAV-1); from Table 1 EC50 and IC50): highest
H5BW12O40 [Formula 4]	85 µM	–	–	0.46 µM	126 µM	Toxicity PBM Cells, percent at given concentration (human PBM cells; 200 μM): 76%,
H6P2W18O62 [Formula 13]	–	0.18 µM	0.52 µM	0.52 µM	6.2 µM	Toxicity Vero Cells, percent at given concentration (Vero cells): 81.9%,; Toxicity PBM Cells, percent at given concentration (human PBM cells; 100 μM): 90%,
